Reference: article PMC4589873, “A pain-inducing centipede toxin targets the heat activation machinery of nociceptor TRPV1” (Nature Communications, 2015)
Entries after “also recorded” stand apart in the source; their conditions may differ. Where a SMILES comes first, the peptide text is derived from it. Bridges are numbered along the chain shown (N, C = ends).

Legend:
[1] = tested on: mTRPV1 point mutants at D602, Y632, T634 and L461; experiment: Whole-cell current of mTRPV1 point mutants; format: cell-based, mouse; conditions: glycine or alanine mutation, both at 10 μM, +80 mV
Text: TRPV1 and TRPV3 chimeras used in this study were generated by the overlapping extension method[54] and confirmed by DNA sequencing, as described previously. Briefly, to generate V1/3S, the primer pairs (5′-[…]-3′and 5′-[…]-3′) were used. To generate other TRPV1/TRPV3 chimeras, the enzyme cutting sites by MluI were made by the primer pair (5′-[…]-3′ and 5′-[…]-3′) for TRPV1 and the primer pair (5′-[…]-3′ and 5′-[…]-3′) for TRPV3. The enzyme cutting sites by PvuI were made by the primer pair (5′-[…]-3′ and 5′-[…]-3′) for TRPV1 and the primer pair (5′-[…]-3′ and 5′-[…]-3′) for TRPV3. The enzyme cutting sites by BsiWI were made by the primer pair (5′-[…]-3′ and 5′-[…]-3′) for TRPV1 and the primer pair (5′-[…]-3′ and 5′-[…]-3′) for TRPV3. V1/3M were generated by enzyme cut and paste between MluI and PvuI sites, while V1/3L were generated by enzyme cut and paste between MluI and BsiWI sites. V1_S1S2_1, V1_S1S2_3 and V1_S1S2_3 were generated as previously reported. […]
As described in details in a previous report, macroscopic currents (in whole-cell, inside-out or outside-out configuration) as well as single-channel currents were recorded using a HEKA EPC10 amplifier with the PatchMaster software (HEKA). […] Statistical difference was determined using the Student’s t-test, and indicated by ** when reaching the significance level P<0.001.

[2] = tested on: voltage-gated Na channels; experiment: Selectivity recording on voltage-gated Na channels; format: cell-based; conditions: 10 μM RhTx compared to toxin-free treatment
Procedure: (§1) Supplementary Figure 3. […]
(§2) mTRPV2 (c), mTRPV3 (d) and mTRPV4 (e). (f) Treatment with 10 μM RhTx (red traces)

[3] = tested on: dorsal root ganglion (DRG) neurons; experiment: Calcium imaging of DRG neurons (Fluo-4); format: cell-based, mouse; conditions: RhTx 10 μM, capsaicin 10 μM
Procedure: Mouse DRG neurons were acutely dissociated and maintained in a short-term primary culture according to procedures as previous descripted. DRG neurons or HEK-293T cells were loaded with Fluo-4 AM in 2 mM Ca^2+ Ringer’s solution (140 mM NaCl, 5 mM KCl, 2 mM MgCl2, 10 mM glucose, 2 mM CaCl2 and 10 mM HEPES, pH 7.4). Fluorescence images of DRG neurons and HEK-293T cells were acquired with an Olympus IX81 microscope with Hamamatsu C4742 charge-coupled device camera controlled by the MetaFluor Software (Molecular Devices). Fluo-4 was excited by a mercury vapour light source with a 500/20-nm excitation filter, while fluorescence emission was detected with a 535/30-nm emission filter. Fluorescence images were required with automated routines written in MetaMorph software (Molecular Devices) and analysed with Igor Pro (Wavemetrics).

[4] = tested on: voltage-gated K channels; experiment: Selectivity recording on voltage-gated K channels; format: cell-based; conditions: 10 μM RhTx compared to toxin-free treatment
Procedure: as §1, §2

[5] = tested on: voltage-gated Ca channels; experiment: Selectivity recording on voltage-gated Ca channels; format: cell-based; conditions: 10 μM RhTx compared to toxin-free treatment
Procedure: as §1, §2

[6] = tested on: mTRPV2; experiment: Selectivity recording on mTRPV2; format: cell-based, mouse; conditions: RhTx at 10 μM
Procedure: (§3) As described in details in a previous report, macroscopic currents (in whole-cell, inside-out or outside-out configuration) as well as single-channel currents were recorded using a HEKA EPC10 amplifier with the PatchMaster software (HEKA). Both pipette solution and bath solution contained 130 mM NaCl, 3 mM HEPES and 0.2 mM EDTA (pH 7.2). All recordings were performed at room temperature unless otherwise stated. A holding potential of 0 mV was used from which a testing pulse to +80 mV was applied. Statistical difference was determined using the Student’s t-test, and indicated by ** when reaching the significance level P<0.001.
as §1, §2

[7] = tested on: mTRPV3; experiment: Selectivity recording on mTRPV3; format: cell-based, mouse; conditions: RhTx at 10 μM
Procedure: as §3, §1, §2

[8] = tested on: Trpv1−/− knockout mice; experiment: Paw-licking assay in TRPV1 knockout mice; format: in vivo, mouse; conditions: intraplantar, 1 μmol per paw
Procedure: (§4) In vivo effects of RhTx on WT mice or Trpv1^−/− mice were examined according to protocols described previously. For the paw-licking assay, pain was induced in mice by intraplantar injection of 0.1% formalin, capsaicin (1 μmol per paw) or RhTx (1 μmol per paw). Each of the testing materials was dissolved in 100 μl saline. Control mice received the same volume of saline. Injected mice were placed individually into open polyvinyl cages (20 × 40 × 15 cm). Time spent licking the injected paw was recorded by a digital video camera during the following 40 min. For recording colonic temperature from WT or Trpv1^−/− mice, mice equipped with a copper-constantan thermocouple were individually placed in open polyvinyl cages. A data logger was connected to the thermocouple. Mice were injected intraperitoneally with 100 μl saline containing capsaicin or RhTx. The dose of capsaicin or RhTx was 10 μmol kg^−1 for these experiments. Mice in the control group received the same volume of saline.

[9] = tested on: Trpv1−/− mice; experiment: Colonic temperature in TRPV1 knockout mice; format: in vivo, mouse; conditions: Trpv1−/− mice n=3, intraperitoneal, 10 μmol kg^−1
Procedure: as §4

[10] = tested on: TRPV1; experiment: Single-channel recording of TRPV1; format: cell-based; conditions: single-channel analysis
Procedure: as §3

[11] = tested on: WT mice; experiment: Colonic temperature after intraperitoneal injection; format: in vivo, mouse; conditions: WT mice n=6, intraperitoneal, 10 μmol kg^−1
Procedure: as §4

[12] = biological target: T1, mTRPV1 (Mus musculus, UniProt Q704Y3); experiment: Inside-out patch, toxin applied from the intracellular side; format: cell-based; conditions: inside-out patch containing mTRPV1, holding 0 mV, testing +80 mV
T1 construct: expressed in transfected cells; host or cells: HEK-293T
Procedure: as §3

[13] = tested on: mTRPV4; experiment: Selectivity recording on mTRPV4; format: cell-based, mouse; conditions: RhTx at 10 μM
Procedure: as §3, §1, §2

T1 sequence (Q704Y3 whole entry): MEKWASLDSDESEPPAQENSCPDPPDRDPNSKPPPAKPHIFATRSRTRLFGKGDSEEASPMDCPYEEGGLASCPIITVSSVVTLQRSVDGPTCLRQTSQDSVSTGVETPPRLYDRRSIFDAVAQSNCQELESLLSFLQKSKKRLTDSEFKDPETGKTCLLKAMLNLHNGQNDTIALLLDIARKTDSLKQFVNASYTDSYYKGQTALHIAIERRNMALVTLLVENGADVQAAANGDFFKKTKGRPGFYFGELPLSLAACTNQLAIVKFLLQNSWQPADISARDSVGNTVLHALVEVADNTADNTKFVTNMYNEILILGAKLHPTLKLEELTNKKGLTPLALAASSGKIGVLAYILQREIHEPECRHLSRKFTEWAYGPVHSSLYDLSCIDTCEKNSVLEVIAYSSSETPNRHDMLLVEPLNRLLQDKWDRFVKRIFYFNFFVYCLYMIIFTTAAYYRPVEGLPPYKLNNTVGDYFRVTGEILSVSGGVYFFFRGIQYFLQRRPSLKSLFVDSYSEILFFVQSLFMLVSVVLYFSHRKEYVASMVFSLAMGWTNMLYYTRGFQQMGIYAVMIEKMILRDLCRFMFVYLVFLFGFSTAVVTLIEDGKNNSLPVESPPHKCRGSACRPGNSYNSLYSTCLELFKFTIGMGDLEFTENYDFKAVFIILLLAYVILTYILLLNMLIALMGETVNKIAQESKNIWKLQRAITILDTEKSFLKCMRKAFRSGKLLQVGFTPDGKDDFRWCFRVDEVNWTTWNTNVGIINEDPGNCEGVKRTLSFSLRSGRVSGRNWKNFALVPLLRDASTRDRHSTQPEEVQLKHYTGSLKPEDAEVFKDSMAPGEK

## CC[C@H](C)[C@H](NC(=O)[C@@H]1CSSC[C@@H]2NC(=O)[C@H]([C@@H](C)O)NC(=O)[C@H](C(C)C)NC(=O)CNC(=O)[C@H](CC(N)=O)NC(=O)[C@@H](NC(=O)[C@@H]3CCCN3C(=O)[C@H](CC(N)=O)NC(=O)[C@H](CC(N)=O)NC(=O)[C@@H](N)CC(C)C)CSSC[C@H](NC(=O)[C@H](CCCNC(=N)N)NC(=O)[C@H](Cc3ccc(O)cc3)NC(=O)CNC(=O)[C@H](CO)NC(=O)[C@@H]3CCCN3C2=O)C(=O)N[C@@H](CO)C(=O)N[C@@H]([C@@H](C)CC)C(=O)N[C@@H](C(C)C)C(=O)N[C@@H](CC(=O)O)C(=O)N[C@@H](CCCCN)C(=O)N[C@@H](CCC(N)=O)C(=O)N1)C(=O)N[C@@H](CCCCN)C(=O)N[C@@H](CCCCN)C(=O)N[C@@H](CCC(=O)O)C(=O)O [RhTx] (H-LNNPCNGVTCPSGYRCSIVDKQCIKKE-OH; disulfide 5-16, 10-23; N-terminus and C-terminus assumed)
[1]
  agonist-induced current in point mutants versus WT channel: markedly reduced
[2]
  effect on voltage-gated Na channels: no detectable effect; also recorded: no discernable response
[3]
  intracellular calcium increase in capsaicin-responsive DRG neurons: nearly as strong as capsaicin
[4]
  effect on voltage-gated K channels: no detectable effect; also recorded: no discernable response
[5]
  effect on voltage-gated Ca channels: no detectable effect; also recorded: no discernable response
[6]
  response of TRPV2: no detectable effect; also recorded: no discernable response
[7]
  response of TRPV3: no detectable effect; also recorded: no discernable response
[8]
  pain behaviour (paw licking) in knockout mice: ineffective
[9]
  core (colonic) temperature in knockout mice: absent
[10]
  inward single-channel current amplitude compared with capsaicin-elicited currents: noticeable reduction
  open probability: near unity
[11]
  core (colonic) temperature: rapid drop in core temperature
[12]
  activity when applied from the intracellular side: completely ineffective; also recorded: no activity
[13]
  response of TRPV4: no detectable effect; also recorded: no discernable response
